These results are taken from patent US20180291123A1, “DI-FUNCTIONALIZED HYALURONIC ACID DERIVATIVES AND HYDROGELS THEREOF” (THE BROAD OF REGENTS OF THE UNIVERSITY OF TEXAS SYSTEM, priority 2015, published 2018).

The subject of series [1] is mouse embryonic stem cells. As to the kind of experiment: Differentiation of mouse embryonic stem cells on IKVAV concentration gradient PEG hydrogels. The format is cell-based. Particulars: 3 days of differentiation.
In another series the test system is hiPSC derived NSC. As to the kind of experiment: hiPSC derived NSC in 3D matrix with coupled IKVAV. The class given is cell-based, human. Particulars: peptide coupled within a 3D matrix, preliminary data.

No end group written: not given here.

IKVAV (also: tethered in PEG hydrogel): the toxicity entry in series [1] (high concentration of tethered peptide) is on record as “toxicity evident”. The neurite extension result in series [1] (low concentration of tethered peptide) is “lack of neurite extension”. Moreover, the “effect on cellular survival, neurite extension and differentiation” value in series [1] (tethered peptide concentration gradient in PEG hydrogels, β3 tubulin staining) was “concentration dependent effect”. Also, the “survival and neurite extension” value in the series with hiPSC derived NSC was “can support survival and neurite extension”.
